In the assay the target is T1, de novo-synthesized PPARα (Mus musculus, UniProt P23204).
T1 construct: infected with lentiviral particles of full-length PPARα and then immunoprecipitation performed; expressed in transfected cells; host or cells: Ppara-null mouse hippocampal neurons, lentiviral transduction
T1 sequence (P23204 1-468): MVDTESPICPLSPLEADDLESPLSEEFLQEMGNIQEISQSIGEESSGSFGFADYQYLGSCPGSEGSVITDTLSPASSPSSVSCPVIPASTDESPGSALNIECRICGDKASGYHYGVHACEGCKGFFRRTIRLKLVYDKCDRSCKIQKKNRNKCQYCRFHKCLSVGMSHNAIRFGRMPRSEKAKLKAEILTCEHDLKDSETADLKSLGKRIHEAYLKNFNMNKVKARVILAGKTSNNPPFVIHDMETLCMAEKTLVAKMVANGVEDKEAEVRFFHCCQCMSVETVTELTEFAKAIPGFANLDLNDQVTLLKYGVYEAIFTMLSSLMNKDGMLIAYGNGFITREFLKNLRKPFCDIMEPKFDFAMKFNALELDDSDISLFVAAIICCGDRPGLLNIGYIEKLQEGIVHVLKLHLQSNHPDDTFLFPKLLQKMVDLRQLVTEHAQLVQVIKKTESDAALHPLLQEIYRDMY
The experiment in a line: Immunoprecipitation and GC-MS of Ppara-null hippocampal neurons infected with lenti full-length PPARα. It is filed as binding. The note with it: lenti-FLPara-transduced, not empty lenti-vector. Here is the method:
Identification of novel nuclear ligands of PPARα in the hippocampus PPARs are nuclear receptors that require the binding of ligands for activation of gene expression. […] In order to identify these ligands, a gas chromatography mass spectrometric (GCMS) technology was adopted. Briefly, nuclear extracts were prepared form mouse hippocampus, incubated with a GST-tagged PPARα ligand binding domain (LBD), purified with affinity chromatography, reconstituted with chloroform or acetonitrile, and GCMS analyses preformed. (FIG. 1A, FIGS. 7A-C.). […] Therefore, next cultured Ppara-null hippocampal neurons were infected with lentiviral particles of full-length PPARα and then immunoprecipitation performed followed by GCMS analyses (FIG. 1J, FIG. 7G-H). […] The efficiency of gene transduction was measured by immunoblot analyses of cell extract with PPARα antibody (FIG. 7I. In addition, these analyses successfully identified a group of biological ligands of PPARα, which are endogenously produced in the hippocampus. Some of these detected compounds are sulfur-containing unknown compounds such as thiazoles (MW 220-240), thiosemicarbazones (MW 190-200) and thiazolidine esters (MW 250-270) (Table 2). However, these compounds were excluded from this study because of their unknown biosynthetic pathway, relatively poor match-factor (<65), and commercial unavailability. […]

The structures appear in SMILES notation.

With `CCCCCCCCC=CCCCCCCCC(N)=O` [OCT, 9-octadecenamide], the “binding to de novo-synthesized PPARα (GC-MS)” value is “found to be bound”.
In the case of `CCCCCCCCCCCCCCCC(N)=O` [HEX, hexadecanamide] it was “found to be bound”.
